Columns and labels:
A673 = experiment: In vitro growth inhibition of cancer cell lines by SRA737; assay type: cell-based; conditions: A673 rhabdomyosarcoma cell line; CDKN2A/CDKN2B and BRCA1, Rad50, Rad51D alterations; FIG. 4
Excerpt: (§1) In cancer cells, replication stress induced by oncogenes (e.g., MYC and RAS oncogenes) and/or loss of function in tumor suppressors (e.g., TP53) results in persistent DNA damage and genomic instability, a trigger of the DDR network. […] SK-BR-3 is a breast cancer cell line harboring a deleterious mutation is TP53 and amplification in c-MYC. HT-29 is a colorectal cancer (CRC) cell line harboring a deleterious mutation in the tumor suppressor gene, adenomatous polyposis coli (APC), an amplification in c-MYC, and an activation mutation in the oncogenes, BRAF and PIK3CA. DU-145 is metastatic prostate cancer cell line harboring a deleterious mutation in the tumor suppressors TP53 and RB1, an amplification in KRAS, and alterations of the DNA damage repair genes TP53B1, MLH1 and MSH3. A673 is a rhabdomyosarcoma cell line harboring genetic alterations in the tumor suppressor genes, CDKN2A and CDKN2B and genetic alterations in the DNA damage repair genes BRCA1, Rad50 and Rad51D. OVCAR-3 is an ovarian cancer cell line harboring a deleterious mutations in the tumor suppressors TP53 and RB1 and an amplification of CCNE1. […] The results of these in vitro experiments confirm that cancer cells with genetic alterations in tumor suppressor genes, oncogenes, and/or DNA damage repair genes are sensitive to inhibition of Chk1.

DU-145 = experiment: as above; assay type: cell-based; conditions: DU-145 metastatic prostate cancer cell line; TP53 and RB1 mutations, KRAS amplification; FIG. 4
Excerpt: as §1

HT-29 = experiment: as above; assay type: cell-based; conditions: HT-29 colorectal cancer cell line; APC mutation, c-MYC amplification, BRAF and PIK3CA activation; FIG. 4
Excerpt: as §1

OVCAR-3 = experiment: as above; assay type: cell-based; conditions: OVCAR-3 ovarian cancer cell line; TP53 and RB1 mutations, CCNE1 amplification; FIG. 5
Excerpt: as §1

OVCAR-5 = experiment: as above; assay type: cell-based; conditions: OVCAR-5 ovarian cancer cell line; KRAS activation, CCNE1 overexpression; FIG. 5
Excerpt: as §1

SK-BR-3 = experiment: as above; assay type: cell-based; conditions: SK-BR-3 breast cancer cell line; TP53 mutation, c-MYC amplification; FIG. 4
Excerpt: as §1

OVCAR-3 xenograft [1] = experiment: OVCAR-3 xenograft model of HGSOC, SRA737 monotherapy (Example 2); assay type: in vivo; conditions: 100 mg/kg, 3 cycles, 5 days on and 2 days off; FIG. 6B
Excerpt: The OVCAR-3 tumor cell line was derived from a platinum insensitive patient and harbors an amplification of CCNE1 (encoding cyclin E) and mutation in TP53 (encoding p53), two genomic alterations described herein to contribute to Chk1 inhibitor sensitivity.

OVCAR-3 xenograft [2] = experiment: OVCAR-3 xenograft model, SRA737 versus Olaparib (Example 3); assay type: in vivo, mouse; conditions: 100 mg/kg

## N#Cc1cnc(Nc2cc(NCC3CNCCO3)c(C(F)(F)F)cn2)cn1 (stereo not drawn) [SRA737, 5-[[4-[[morpholin-2-yl]methylamino]-5-(trifluoromethyl)-2-pyridyl]amino]pyrazine-2-carbonitrile]
A673
  sensitivity to Chk1 inhibition (growth inhibition): demonstrated sensitivity to Chk1 inhibition
DU-145
  sensitivity to Chk1 inhibition (growth inhibition): demonstrated sensitivity to Chk1 inhibition
HT-29
  sensitivity to Chk1 inhibition (growth inhibition): demonstrated sensitivity to Chk1 inhibition
OVCAR-3
  sensitivity to Chk1 inhibition (growth inhibition): demonstrated sensitivity to Chk1 inhibition
OVCAR-5
  sensitivity to Chk1 inhibition (growth inhibition): demonstrated sensitivity to Chk1 inhibition
SK-BR-3
  sensitivity to Chk1 inhibition (growth inhibition): demonstrated sensitivity to Chk1 inhibition
OVCAR-3 xenograft [1]
  tolerability (body weight loss): well tolerated as demonstrated by minimal body weight loss
OVCAR-3 xenograft [2]; FIG. 7A
  tumor growth as compared to Olaparib: significantly reduced tumor growth
OVCAR-3 xenograft [2]; FIG. 7B
  body weight: not significantly altered

From patent US20200157638A1, “BIOMARKERS AND PATIENT SELECTION STRATEGIES” (SIERRA ONCOLOGY, INC., priority 2017, published 2020)
